Test results: the NIST ThermoML archive (doi:10.1021/acs.jced.7b00445)
Numbers after ± are expanded uncertainties.

What was measured:
[1] = 298.15 K; 101.33 kPa; Liquid; Pycnometric method
[2] = refractive index (Na D-line) (dimensionless); conditions: 298.15 K; 101.33 kPa; Liquid; Standard Abbe refractometry
[3] = Boiling temperature at pressure P; conditions: 101.3 kPa; Liquid; Ebulliometric method (Recirculating still)

Structure (SMILES) | mass density [1] | refractive index [2] | Boiling temperature at pressure P [3]
CCC(C)OC(C)=O (configuration not stated) [1-methylpropyl ethanoate] | 867 ± 2 kg/m3 | 1.3872 ± 0.0004 | 111.97 ± 0.16 °C
CCO [ethanol] | 786 ± 2 kg/m3 | 1.3596 ± 0.0004 | 78.27 ± 0.16 °C
CCCO [propan-1-ol] | 802 ± 2 kg/m3 | 1.3842 ± 0.0004 | 97.17 ± 0.16 °C
CC(C)O [propan-2-ol] | 782 ± 2 kg/m3 | 1.3757 ± 0.0004 | 82.36 ± 0.16 °C
